Laboratory results reported in patent publication US20260256746A1, “TRIAZOLES FOR USE IN THE TREATMENT OF OCULAR DISEASES” (MIRAMOON PHARMA, S.L., priority 2022, published 2026).
Values belong to the compound of their own block, whether it stands above or below them.

Legend:
[1] = tested on: rd10 mice; test: In vivo efficacy in rd10 mouse model of retinitis pigmentosa, electroretinographic (ERG) analysis; details: for retinal function measured by ERG activity: 3 μL of 20 mM solution per eye daily for 11 days, scotopic conditions, vs untreated rd10
Procedure: rd10 mice were treated by ocular instillation with phosphate buffered saline (PBS) containing the compounds of the invention (1, 35, 50, 56 and 70) for 11 days (from P14 to P24). Animals were dark adapted for 8 hours at P25 and full-field flash electroretinographic (ERG) responses were recorded with the retina illuminated with a LED-driven Ganzfeld dome. A series of light flashes of increasing intensity, from 0.001 to 10 cd s/m^2, were averaged both in scotopic (dark-adapted) and photopic (light adapted) conditions. Photopic cone responses were recorded following 5 min of light adaptation with a background white light (30 cd/m^2). Light intensity was controlled for each animal group (Mavo-Monitor USB, Gossen, Germany). The stimulation protocols were designed according to the International Society for Clinical Electrophysiology of Vision. Briefly, mice were anesthetized with intraperitoneal administration of a saline solution containing ketamine (95 mg/kg) and xylazine (5 mg/kg) and kept on a 37° C. heating pad. Ocular instillation of 1% tropicamide was applied to induce mydriasis. ERG responses were recorded from both eyes in response to a Ganzfeld stimulator under light flashes. A total of 4 to 64 consecutive stimuli were averaged, with an interval between light flashes in scotopic conditions of 10 s for dim flashes and of up to 60 s for the highest intensity for every light intensity used. For photopic conditions, a one-second interval between light flashes was used. ERG signals were amplified, and band filtered between 0.3 and 1000 Hz (CP511 AC amplifier; Grass Instruments, Quincy, MA, USA). Electrical signals were digitized at 20 kHz with a power laboratory data acquisition board (AD Instruments, Chalgrove, UK).
ERGs were performed using an electrode fixed to a corneal lens (Burian-Allen electrode; Hansen Ophthalmic Development Laboratory, Coralville, IA, USA) and a reference electrode fixed to the mouth, with a ground electrode placed in the tail. Rod-mediated responses were recorded from light flashes ranging from 0.001 to 10 cd s/m^2 with dark-adapted mice. Mixed rod- and cone-mediated signals were recorded in response to −1.5 to 1.5 log cd s/m^2 light flashes. Oscillatory potential (OP) was isolated using 11 cd s/m^2 white flashes, with a recording frequency ranging between 100 and 10,000 Hz. For recording of cone-mediated responses, we applied light flashes ranging from 0.5 to 2 log cd s/m^2 on a rod-saturating background of 30 cd s/m^2. Amplitudes of the a-wave and b-wave were averaged, using data provided by a researcher with no information regarding the experimental condition of mice.
Data correspond to a pool of 3 independent experiments (N=3) with 4-5 mice per experimental group. Data are expressed as mean+/−standard deviation. Unpaired t-test was used for statistical analysis.

[2] = Retinal biodistribution after topical ocular administration, HPLC-MS of retina (mouse); assay type: in vivo; details: formulated with 0.2% hyaluronic acid vs PBS solution; 4 h after single ocular instillation
Procedure: Ocular instillation with PBS solutions containing 0.2% hyaluronic acid (HA) and the selected compounds of the invention were administered: 17 μg/eye (3 μL of 20 mM solution per eye) in mouse; 65 μg/eye (10 μL of 17 mM solution per eye) in rat; and 559 μg/eye (50 μL of 40 mM solution per eye) in swine. Animals were sacrificed after 4 hours (mouse, rabbit and swine) or after 24 hours (rats) of treatment to determinate the availability of the compounds in the retina. Retinas were mechanically homogenized in physiological serum ([…]) and processed to analyze the compounds availability by HPLC-MS.

[3] = tested on: rd10 mice; test: Morphometric analysis of the retina (immunohistochemistry, rhodopsin and cone arrestin); assay type: in vivo, mouse; details: 3 μL of 20 mM solution per eye for 11 days; vs untreated rd10
Procedure: A detailed morphometric analysis, based on immunohistochemistry, was performed. For this purpose, rd10 mice were treated by ocular instillation with phosphate buffered saline (PBS) containing compound 35 (3 μL of 20 mM solution per eye) for 11 days (from P14 to P24). At P25 eyeballs were enucleated and fixed with 4% paraformaldehyde (in PBS) for 3 hours. The anterior segment and lens were dissected, and the eyecups were incubated in 30% sucrose (in PBS) for 12 h at 4° C. Cryosection with DAPI. ocular cryosections were stained with DAPI, rhodopsin and cone arrestin for immunohistochemical analysis. Briefly, cryosections were incubated with antibodies against rhodopsin (Millipore, MABN15) and cone arrestin (Millipore, AB15282) both at 1:400 for 8 h at 4° C. and buffered with secondary antibodies both at 1:400 and DAPI (Sigma, D89542) 1:1000 for 1 hour. The sections were analyzed by fluorescent microscopy.

[4] = tested on: rd10 mice; test: Optokinetic response based on a modified Morris water maze; assay type: in vivo, mouse; details: daily ocular instillation for 16 days; spatial frequencies 0.01; 0.02; 0.17 and 0.35 cycles/degree
Procedure: rd10 mice were treated by ocular instillation with phosphate buffered saline (PBS) containing the compound 35 of the invention for 16 days (from P14 to P29). To study optokinetic (OKT) response, we conducted an OKT test in combination with a modified Morris water maze using 9 rd10 mice at p30: 5 treated with compound 35 and 4 untreated. Animals were adapted to the experimental conditions for 1 week before behavioral testing. Mice were trained in a square pool (70×40 cm) filled with water (24-26-C), with all sides opaque, except the frontal side, where a screen was placed. The screen was divided vertically into 2 equal parts. A pattern of moving vertical bars was presented on one half of the screen, with the other half turned off. The direction of the bars was random: 50% of the time moving to the right and 50% of the time moving to the left. The bar velocity was constant throughout the process. Mice were trained for one week to associate the area of the screen with moving bars with the presence of a submerged platform, not visible to the mice under the dim light conditions, that was placed right next to that area of the screen. The platform allowed the mice to escape from the water. […] Contrast sensitivity values were measured, and the results of treated and untreated mice were compared.

[5] = tested on: 661W cells; test: Prevention of 9-cis-Retinal and light-induced phototoxicity, impedance recording; assay type: cell-based; details: Mus musculus, light or radiation study, 20 μM 9-cis-Retinal, 30,000 luxes white light, impedance converted to percentage of cytolysis, read-out: EC50 of protection against phototoxicity
Procedure: 661W cells were seeded onto 96-wells MEA impedance plates (50,000 cells/well) and grown until confluence in the Maestro Edge equipment (Axion Biosystems) at 37° C. and 5% CO2. When impedance reaches a plateau, phototoxicity is induced by addition of 20 μm 9-cis retinal and 30,000 luxes of white light. Increasing concentrations of compound 35 were added (A). Impedance was recorded every minute for 24 hours and was converted to percentage of cytolysis (B). 661 W cells were seeded in a 96-wells impedance plate (50,000 cells/well), previously coated with ECM 1:100, and grown O/N at 37° C. and 5% CO2 in DMEM/F-12 (Thermo Fisher, 11320033) supplemented with 40 μL/L hydrocortisone 21-hemisuccinate (Sigma, H-2270), 40 μL/L progesterone (Sigma, P-8783), 0.032 g/L putrescine (Sigma, P-7505), 40 μL/L β-mercaptoethanol (Sigma, M-6250), antibiotic-antimycotic solution (Sigma, A5955) and 10% fetal bovine serum (FBS). After 8 h, the medium was replaced by DMEM/F-12 without FBS or complements to remove cellular debris. When cells arrived at a plateau in the impedance recording (4-8 hours after the medium change, depending on the culture plate) compound 35 was added and two hours later the 9-cis-Retinal (Cf=20 μM) was added. The cells were placed in the Maestro Z and exposed to 30,000 white light luxes. to register the impedance.

[6] = Retinal biodistribution by in vivo autoradiography after ocular instillation; set-up: species or system Sprague-Dawley rats; details: 5 μL/eye of 20 mM PBS solution, autoradiography at 1, 8 and 24 h
Procedure: In order to test the bioavailability of the compounds 1, 24, 35, 53, 66 and 67 to the retina, the following species we used: mouse, rat, rabbit and swine. Animals were treated under anesthesia. In vivo autoradiography imaging was conducted at 1, 8 and 24 hours following the ocular instillation of compound [^3H]-35 (5 μL/eye) as a phosphate buffered saline (PBS) 20 mM solution under carrier added conditions (ca. 7 mBq/eye) on Sprague-Dawley rats (n=4 for each time point). After the enucleation, the eye was incubated firstly in an aqueous solution at 4% of paraformaldehyde for 4 hours, then in aqueous solution at 10% and 20% of sucrose for 2 hours each and finally in aqueous solution at 30% of sucrose for one week. All the incubations were at 4° C. The samples were fixed in OCT (optimal cutting temperature polymer) and fine 20-μm sections of eye were cut using a Leyca cryostat (Leica CM3050 S, Germany) at −24° C. The slices (20 μm thick) were disposed on glass slides (Superfrost Plus, Labolan). Autoradiography was performed in Beta Imager 2000 system (Biospace Lab, France), for 1 h on four consecutive slices of the central part of the organ where all the parts are visible (FIG. 1 A).

- retinal function measured by ERG activity [1]: increased retinal function
Compound: COc1ccc(OCc2cn(CCN(C)C)nn2)cc1 [Compound 1, 1-[2-(N,N-dimethylamino)ethyl]-4-[(4-methoxyphenoxy)methyl]-1H-1,2,3-triazole]

- delivery percentage to the mouse retina (percentage of administered dose per gram of retina) [2]: higher delivery percentage
- cone function: recovery score vs. WT ([1]; 0.2 cd s/m^2 light intensity): 78%
- cone function: increase of ERG amplitude ([1]; 0.2 cd s/m^2 light intensity, vs rd10 control group): 66%
- retinal function measured by ERG activity [1]: increased retinal function
Compound: COc1ccc(SCc2cn(CCN(C)C)nn2)cc1 [Compound 35, 1-[2-(N,N-dimethylamino)ethyl]-4-[(4-methoxyphenyl)thiomethyl]-1H-1,2,3-triazole]
- preservation of photoreceptors (number of rods and cones per square mm, rod outer and inner segment) [3]: significant preservation of photoreceptors
- contrast sensitivity (visual acuity), treated vs untreated [4]: greatest differences were observed in the outlier values of spatial frequency
- EC50 [5]: 0.0305 µM

- retinal function measured by ERG activity [1]: increased retinal function
Compound: COc1ccc(SCc2cn(CCCNC(=N)NC(=N)N)nn2)cc1 [Compound 50, 1-[3-(biguanidinyl)propyl]-4-[(4-methoxyphenyl)thiomethyl]-1H-1,2,3-triazole]

- time after administration up to which compound was detected in rat retina [6]: up to 24 h
- time of peak concentration in rat retina [6]: around 8 h
Compound: [3H]c1c(CSc2ccc(OC)cc2)nnn1CCN(C)C [Compound 52, 1-[2-(N,N-dimethylamino)ethyl]-5-trithium-4-[(4-methoxyphenyl)thiomethyl]-1H-1,2,3-triazole]

- retinal function measured by ERG activity [1]: increased retinal function
Compound: [O-][S+](Cc1cn(CCN2CCCCC2)nn1)c1cccc(C(F)(F)F)c1 (stereo not shown) [Compound 56, 1-[2-(piperidin-1-yl)ethyl]-4-[(3-trifluoromethylphenyl)sulfinylmethyl]-1H-1,2,3-triazole]

- retinal function measured by ERG activity [1]: increased retinal function
Compound: CC(C)c1ccc(S(=O)(=O)Cc2cn(CCN3CCOCC3)nn2)cc1 [Compound 70, 4-[(4-isopropylphenyl)sulfonylmethyl]-1-[2-(4-morpholinyl)ethyl]-1H,1,2,3-triazole]
